Data published in ChEMBL document CHEMBL1126144, “Synthesis and evaluation of radioiodinated 2-(2(RS)-aminopropyl)-5- iodothiophenes as brain imaging agents” (J Med Chem, 1992).

Experiments:
Rattus norvegicus [1] = assay: Distribution of the radioiodinated compound expressed as percent dose per gram, in blood of unfasted rats after 5 mins of intravenous administration (11.5 uCi/animal); value ranges from 0.28-0.37% dose/g; format: ADME, organism-based; settings: in vivo
Rattus norvegicus [2] = assay: Distribution of the radioiodinated compound expressed as percent dose per gram, in lungs of unfasted rats after 30 mins of intravenous administration (11.5 uCi/animal); value ranges from 0.51-3.71 % dose/g; format: ADME, organism-based, Lung; settings: in vivo, 0.5 h
Rattus norvegicus [3] = assay: Distribution of the radioiodinated compound expressed as percent dose per gram, in kidney of unfasted rats after 5 mins of intravenous administration (11.5 uCi/animal); value ranges from 2.12-3.14 % dose/g; format: ADME, organism-based; settings: in vivo
Rattus norvegicus [4] = assay: Distribution of the radioiodinated compound expressed as percent dose per gram, in thyroid of unfasted rats after 30 mins of intravenous administration (11.5 uCi/animal); value ranges from 5.03-36.88 % dose/g; format: ADME, organism-based, Thyroid gland; settings: in vivo, 0.5 h
Rattus norvegicus [5] = assay: Distribution of the radioiodinated compound expressed as percent dose per gram, in heart of unfasted rats after 30 mins of intravenous administration (11.5 uCi/animal); value ranges from 0.06-0.53 % dose/g; format: ADME, organism-based; settings: in vivo, 0.5 h
Rattus norvegicus [6] = assay: Distribution of the radioiodinated compound expressed as percent dose per gram, in kidney of unfasted rats after 60 mins of intravenous administration (11.5 uCi/animal); value ranges from 0.74-0.85 % dose/g; format: ADME, organism-based; settings: in vivo, 1 h
Rattus norvegicus [7] = assay: Distribution of the radioiodinated compound expressed as percent dose per gram, in kidney of unfasted rats after 30 mins of intravenous administration (11.5 uCi/animal); value ranges from 0.15-1.43 % dose/g; format: ADME, organism-based; settings: in vivo, 0.5 h
Rattus norvegicus [8] = assay: Distribution of the radioiodinated compound expressed as percent dose per gram, in liver of unfasted rats after 30 mins of intravenous administration (11.5 uCi/animal); value ranges from 0.08-0.90 % dose/g; format: ADME, organism-based; settings: in vivo, 0.5 h
Rattus norvegicus [9] = assay: Distribution of the radioiodinated compound expressed as percent dose per gram, in blood of unfasted rats after 30 mins of intravenous administration (11.5 uCi/animal); value ranges from 0.06-0.63 % dose/g; format: ADME, organism-based; settings: in vivo, 0.5 h
Rattus norvegicus [10] = assay: Distribution of the radioiodinated compound expressed as percent dose per gram, in heart of unfasted rats after 60 mins of intravenous administration (11.5 uCi/animal); value ranges from 0.33-0.42 % dose/g; format: ADME, organism-based; settings: in vivo, 1 h
Rattus norvegicus [11] = assay: Distribution of the radioiodinated compound expressed as percent dose per gram, in blood of unfasted rats after 60 mins of intravenous administration (11.5 uCi/animal); value ranges from % dose/g; format: ADME, organism-based; settings: in vivo, 1 h
Rattus norvegicus [12] = assay: Distribution of the radioiodinated compound expressed as percent dose per gram, in liver of unfasted rats after 60 mins of intravenous administration (11.5 uCi/animal); value ranges from 0.61-0.81 % dose/g; format: ADME, organism-based; settings: in vivo, 1 h
Rattus norvegicus [13] = assay: Distribution of the radioiodinated compound expressed as percent dose per gram, in brain of unfasted rats after 60 mins of intravenous administration (11.5 uCi/animal); value ranges from 0.81-1.08 % dose/g; format: ADME, organism-based; settings: in vivo, 1 h
Rattus norvegicus [14] = assay: Distribution of the radioiodinated compound expressed as percent dose per gram, in lungs of unfasted rats after 60 mins of intravenous administration (11.5 uCi/animal); value ranges from 1.87-2.12 % dose/g; format: ADME, organism-based, Lung; settings: in vivo, 1 h
Rattus norvegicus [15] = assay: Distribution of the radioiodinated compound expressed as percent dose per gram, in lungs of unfasted rats after 5 mins of intravenous administration (11.5 uCi/animal); value ranges from 5.92-8.51% dose/g; format: ADME, organism-based, Lung; settings: in vivo
Rattus norvegicus [16] = assay: Distribution of the radioiodinated compound expressed as percent dose per organ, in thyroid of unfasted rats after 60 mins of intravenous administration (11.5 uCi/animal); value ranges from 0.99-1.40 % dose/g; format: ADME, organism-based, Thyroid gland; settings: in vivo, 1 h
Rattus norvegicus [17] = assay: Distribution of the radioiodinated compound expressed as percent dose per gram, in brain of unfasted rats after 30 mins of intravenous administration (11.5 uCi/animal); value ranges from 0.16-1.76 % dose/g; format: ADME, organism-based; settings: in vivo, 0.5 h
Rattus norvegicus [18] = assay: Distribution of the radioiodinated compound expressed as percent dose per gram, in liver of unfasted rats after 5 mins of intravenous administration (11.5 uCi/animal); value ranges from 1.64-2.38 % dose/g; format: ADME, organism-based; settings: in vivo
Rattus norvegicus [19] = assay: Distribution of the radioiodinated compound expressed as percent dose per organ, in thyroid of unfasted rats after 5 mins of intravenous administration (11.5 uCi/animal); value ranges from 0.08-0.17 % dose/g; format: ADME, organism-based, Thyroid gland; settings: in vivo
Rattus norvegicus [20] = assay: Distribution of the radioiodinated compound expressed as percent dose per organ, in thyroid of unfasted rats after 30 mins of intravenous administration (11.5 uCi/animal); value ranges from 0.05-0.38 % dose/g; format: ADME, organism-based, Thyroid gland; settings: in vivo, 0.5 h
Rattus norvegicus [21] = assay: Distribution of the radioiodinated compound expressed as percent dose per gram, in brain of unfasted rats after 5 mins of intravenous administration (11.5 uCi/animal); value ranges from 2.57-3.59 % dose/g; format: ADME, organism-based; settings: in vivo
Rattus norvegicus [22] = assay: Distribution of the radioiodinated compound expressed as percent dose per gram, in thyroid of unfasted rats after 5 mins of intravenous administration (11.5 uCi/animal); value ranges from 7.87-16.51 % dose/g; format: ADME, organism-based, Thyroid gland; settings: in vivo
Rattus norvegicus [23] = assay: Distribution of the radioiodinated compound expressed as percent dose per gram, in thyroid of unfasted rats after 60 mins of intravenous administration (11.5 uCi/animal); value ranges from 31.90-39.98 % dose/g; format: ADME, organism-based, Thyroid gland; settings: in vivo, 1 h
Rattus norvegicus [24] = species: Rattus norvegicus; assay: Specific activity of the radioiodinated compound was determined in rats; format: functional
Rattus norvegicus [25] = assay: Distribution of the radioiodinated compound expressed as percent dose per gram, in heart of unfasted rats after 5 mins of intravenous administration (11.5 uCi/animal); value ranges from 0.85-1.13 % dose/g; format: ADME, organism-based; settings: in vivo

In the case of `CC(C)NC(C)Cc1ccc(I)s1` (racemic), the Distribution (Rattus norvegicus [1]) is reported as 0.31 % dose g-1, the Distribution (Rattus norvegicus [2]) is reported as 2.76 % dose g-1 and the Distribution (Rattus norvegicus [3]) is reported as 2.72 % dose g-1. It also gave a Distribution (Rattus norvegicus [4]) of 26.26 % dose g-1, a Distribution (Rattus norvegicus [5]) of 0.42 % dose g-1 and a Distribution (Rattus norvegicus [6]) of 0.79 % dose g-1. The Distribution (Rattus norvegicus [7]) was 1.04 % dose g-1, the Distribution (Rattus norvegicus [8]) was 0.71 % dose g-1 and the Distribution (Rattus norvegicus [9]) was 0.49 % dose g-1. It also gave a Distribution (Rattus norvegicus [10]) of 0.37 % dose g-1, a Distribution (Rattus norvegicus [11]) of 0.6 % dose g-1 and a Distribution (Rattus norvegicus [12]) of 0.07 % dose g-1. It also gave a Distribution (Rattus norvegicus [13]) of 0.95 % dose g-1, a Distribution (Rattus norvegicus [14]) of 1.97 % dose g-1 and a Distribution (Rattus norvegicus [15]) of 7.01 % dose g-1. The Distribution (Rattus norvegicus [16]) was 1.24 % dose organ-1, the Distribution (Rattus norvegicus [17]) was 1.37 % dose g-1 and the Distribution (Rattus norvegicus [18]) was 2.06 % dose g-1. It also gave a Distribution (Rattus norvegicus [19]) of 0.13 % dose organ-1, a Distribution (Rattus norvegicus [20]) of 0.28 % dose organ-1 and a Distribution (Rattus norvegicus [21]) of 3.18 % dose g-1. For the same compound, the Distribution (Rattus norvegicus [22]) was 12.51 % dose g-1, the Distribution (Rattus norvegicus [23]) was 36.45 % dose g-1 and the Activity (Rattus norvegicus [24]) was 40 mCi animal-1. For the same compound, the Distribution (Rattus norvegicus [25]) was 0.94 % dose g-1.
